According to patent US20040265300A1, “Chimeric molecules containing a module able to target specific cells and a module regulating the apoptogenic function of the permeability transition pore complex (PTPC)” (priority 2001, published 2004):
Ends that are not written are not given here. Peptide text beside a SMILES is read from it. * marks the point of attachment. Biotin = O=C1N[C@H]2[C@H](CS[C@H]2CCCCC(=O)*)N1

How the values were obtained:
[1] = system: permeability transition pore (PTP); test: Swelling of isolated mitochondria (large amplitude swelling, 90° light scattering); assay type: biochemical, rat; parameters: key to Induction of Mitochondrial swelling (sw): +++ rapid sw; ++ low sw; + very low sw; − no sw; conditions: for Induction of Mitochondrial swelling (sw): 5 μM, t 20 min
Method: Mitochondria are purified from rat liver, as described (Costantini et al., 1996), and resuspended in 250 mM sucrose +0.1 mM EGTA +10 mM -tris[hydroxymethyl]methyl-2-Aminoethanesulfonic acid, pH=7.4). For the induction of PT, mitochondria (0.5 mg protein per ml) are resuspended in PT buffer (200 mM sucrose, 10 mM Tris-MOPS (pH 7.4), 5 MM Tris-succinate, 1 mM Tris-phosphate, 2 μM rotenone, and 10 μM EGTA-Tris), and monitored in an F4500 fluorescence spectrometer (Hitachi, Tokyo, Japan) for the 90° light scattering of light (545 nm) to determine large amplitude swelling after addition of 2 mM atractyloside (Atr), 1 μM cyclosporin A (CsA; Novartis, Basel, Switzerland), 5 μM CaCl2, and/or 0.5 to 20 μM of pTarg-pTox or pTarg-pSave. For the determination of the ΔΨm, mitochondria (0.5 mg protein per ml) are incubated in a buffer supplemented with 1μM rhodamine 123 (Molecular Probes, Eugene, OR) and the dequenching of rhodamine fluorescence (excitation 505 nm, emission 525 nm) is measured as described (Shimizu et al., 1998). Supernatants from mitochondria (6800 g for 15 min; then 20 000 g for 1 h; 4° C.) are frozen at −80° C. until determination of apoptogenic activity on isolated nuclei, DEVD-afc cleaving activity, and immunodetection of cytochrome c and AIF. Cytochrome c and AIF are detected by means of a monoclonal antibody (clone 7H8.2C12, Pharmingen) and a polyclonal rabbit anti-serum (Susin et al. 1999) respectively.

purified VDAC = purified VDAC (Homo sapiens, UniProt P21796); test: Surface plasmon resonance, immobilised peptides with purified VDAC; assay type: binding; conditions: for specific binding of VDAC: 50 nM VDAC
Method: (§1) Sensor Chips SA (streptavidin coated sensor chips) were used for immobilisation of the different peptides. Tox1 was immobilised at a density of 0.7 ng/mm^2, Tox0 at a density of 3.7 ng/mm^2,. Ctrl Tox0 at a density of 1.4 ng/mm^2, Tox5 at a density of 1 ng/mm^2, Tox6 at a density of 1 ng/mm^2, Save 1 at a density of 1.3 ng/mm^2, and the control peptide at a density of 0.8 ng/mm^2. Association and dissociation kinetics of ANT and VDAC interactions were followed at a rate of 10 μL/min for 10 minutes (5 minutes association and 5 minutes dissociation). The ligand was regenerated with a 1 minute flux of KSCN 3M. The obtained sensorgrams were analysed by the B1Aeval 3.1 software using the method of double references (Myszka D.G. 2000. Kinetic, equilibrium and thermodynamic analysis of macromolecular interactions with BIACORE. Methods Enzymol. 323:325-340). From the sensorgrams with the ligands were first substracted the sensorgrams obtained with the corresponding analyte solvents. A second substraction was performed with the sensorgrams obtained with the control peptide ligand. The control peptide for the Tox and Save peptides was biot-H19C corresponding to the sequence of the β2-adrenergic receptor (Lebesgue D., Wallukat G., Mijares A., Granier C., Argibay J., and Hoebeke J. (1998) An agonist-like monoclonal antibody to the human β 2-adrenergic receptor. Eur.J. Pharmacol. 348:123-133). The control peptide for Tox0 was Ctr1 Tox0.

purified ANT = molecular target: T1, purified ANT (Rattus norvegicus, UniProt Q05962); assay type: binding; conditions: for binding to purified ANT: surface plasmon resonance; for Kd: one ANT concentration only, 50 nM, read-out: relative affinities of ANT for the peptide
T1 sequence (Q05962 1-298): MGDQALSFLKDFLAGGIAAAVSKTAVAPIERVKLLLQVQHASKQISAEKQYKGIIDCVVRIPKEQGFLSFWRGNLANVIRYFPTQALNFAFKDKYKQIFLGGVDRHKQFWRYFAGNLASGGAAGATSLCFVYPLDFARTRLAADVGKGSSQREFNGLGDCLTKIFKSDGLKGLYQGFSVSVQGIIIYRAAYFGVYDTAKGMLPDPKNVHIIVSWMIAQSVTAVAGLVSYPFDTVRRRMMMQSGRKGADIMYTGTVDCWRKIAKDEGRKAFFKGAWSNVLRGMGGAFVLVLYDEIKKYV
Method: as §1

Chain of purified VDAC (P21796 whole entry, species assumed): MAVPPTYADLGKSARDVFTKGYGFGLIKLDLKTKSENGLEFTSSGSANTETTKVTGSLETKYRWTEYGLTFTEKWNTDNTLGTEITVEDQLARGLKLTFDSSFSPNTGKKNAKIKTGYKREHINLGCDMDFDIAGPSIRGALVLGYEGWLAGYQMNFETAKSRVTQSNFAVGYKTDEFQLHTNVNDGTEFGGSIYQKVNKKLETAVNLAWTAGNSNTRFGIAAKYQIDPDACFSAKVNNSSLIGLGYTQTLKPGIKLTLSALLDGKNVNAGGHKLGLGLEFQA

Row | Compound | specific binding of VDAC (purified VDAC) | binding to purified ANT (purified ANT) | Induction of Mitochondrial swelling (sw) [1] | further results
1 | C=C1[C@@H]2CC[C@H]3[C@]4(C)C[C@H](O[C@@H]5O[C@H](CO)[C@@H](OS(=O)(=O)O)[C@H](OS(=O)(=O)O)[C@H]5OC(=O)CC(C)C)C[C@@H](C(=O)O)[C@H]4CC[C@]3(C2)[C@H]1O [Atractyloside, atractyloside, reference compound] |  |  |  | Mitrochondrial swelling (sw) % ([1]; 600 μM): 110%
2 | [Ca+2] [Ca 2+, reference compound] |  |  |  | Mitrochondrial swelling (sw) % ([1]; 100 μM): 100%
3 | C[C@H](NC(=O)[C@H](Cc1ccccc1)NC(=O)[C@H](Cc1ccc(O)cc1)NC(=O)[C@H](CCCNC(=N)N)NC(=O)[C@H](Cc1c[nH]c2ccccc12)NC(=O)[C@H](Cc1ccccc1)NC(=O)[C@H](CCC(N)=O)NC(=O)[C@@H](NC(=O)[C@H](CCCNC(=N)N)NC(=O)[C@H](CCCCN)NC(=O)[C@H](CC(=O)O)NC(=O)[C@H](CCCNC(=N)N)NC(=O)[C@H](CCCNC(=N)N)NC(=O)[C@H](CCCNC(=N)N)NC(=O)[C@H](CCC(N)=O)NC(=O)[C@H](CCCNC(=N)N)NC(=O)[C@H](CCCNC(=N)N)NC(=O)[C@H](CCCCN)NC(=O)[C@H](CCCCN)NC(=O)[C@H](CCCNC(=N)N)NC(=O)CCCC[C@@H]1SC[C@@H]2NC(=O)N[C@@H]21)[C@@H](C)O)C(=O)NCC(=O)N[C@@H](CC(N)=O)C(=O)O [Save1, Biot-RKKRRQRRR-DKRTQFWRYFAGN (hANT2)] (Biotin-RKKRRQRRRDKRTQFWRYFAGN-OH; C-terminus assumed) | did not result in any specific binding | Binds Purified ANT |  | 
4 | C[C@@H](O)[C@H](NC(=O)[C@H](CCCNC(=N)N)NC(=O)[C@H](CCCCN)NC(=O)[C@H](CC(=O)O)NC(=O)CNC(=O)CNC(=O)[C@H](CS)NC(=O)[C@H](CCCNC(=N)N)NC(=O)CNC(=O)[C@H](CC(N)=O)NC(=O)[C@H](CS)NC(=O)CCCC[C@@H]1SC[C@@H]2NC(=O)N[C@@H]21)C(=O)N[C@@H](CCC(N)=O)C(=O)N[C@@H](Cc1ccccc1)C(=O)N[C@@H](Cc1c[nH]c2ccccc12)C(=O)N[C@@H](CCCNC(=N)N)C(=O)N[C@@H](Cc1ccc(O)cc1)C(=O)N[C@@H](Cc1ccccc1)C(=O)N1CCC[C@H]1C(=O)NCC(=O)N[C@@H](CC(N)=O)C(=O)O [Tox5, Biot-CNGRC-GG-DKRTQFWRYFPGN (hANT2m)] (Biotin-CNGRCGGDKRTQFWRYFPGN-OH; N-terminus and C-terminus assumed) | did not result in any specific binding | Binds Purified ANT | ++ | Kd (purified ANT): 0.1 nM
5 | C[C@H](NC(=O)CCCC[C@@H]1SC[C@@H]2NC(=O)N[C@@H]21)C(=O)N[C@@H](CS)C(=O)N[C@@H](CC(=O)O)C(=O)N[C@@H](CS)C(=O)N[C@@H](CCCNC(=N)N)C(=O)NCC(=O)N[C@@H](CC(=O)O)C(=O)N[C@@H](CS)C(=O)N[C@@H](Cc1ccccc1)C(=O)N[C@@H](CS)C(=O)NCC(=O)NCC(=O)N[C@@H](CC(=O)O)C(=O)N[C@@H](CCCCN)C(=O)N[C@@H](CCCNC(=N)N)C(=O)N[C@H](C(=O)N[C@@H](CCC(N)=O)C(=O)N[C@@H](Cc1ccccc1)C(=O)N[C@@H](Cc1c[nH]c2ccccc12)C(=O)N[C@@H](CCCNC(=N)N)C(=O)N[C@@H](Cc1ccc(O)cc1)C(=O)N[C@@H](Cc1ccccc1)C(=O)N1CCC[C@H]1C(=O)NCC(=O)N[C@@H](CC(N)=O)C(=O)O)[C@@H](C)O [Tox6, Biot-ACDCRGDCFC-GG-DKRTQFWRYFPGN (hANT2m)] (Biotin-ACDCRGDCFCGGDKRTQFWRYFPGN-OH; N-terminus and C-terminus assumed) | did not result in any specific binding | Binds Purified ANT | ++ | Kd (purified ANT): 0.7 nM
6 | Biot-CNGRC-GG-CNGRC [Ctr2Tox1] |  |  | − | 
7 | Biot-CNGRC-GG-HFAIGCRHSAIG (Biotin-CNGRCGGHFAIGCRHSAIG; cysteine pairing not given here) [Ctr1Tox1] |  |  | − | 
8 | Biot-CNGRC-GG-HFRIGCRHSRIG [Tox1] |  | Binds Purified ANT | ++ | association of VDAC with the peptide ligand (purified VDAC; VDAC concentrations ten times higher than ANT): extremely low association
9 | Biot-GG-HFRIGCRHSRIG [Ctr3Tox1] |  |  | + | 
